The values below come from patent publication US10507212B2, “Method for use of homopiperazinium compounds in the treatment of cancer” (UNIVERSITÉ LAVAL, priority 2014, dated 2019).

One test relates to MDA-MB-231. Description: Anti-proliferative MTT assay, MDA-MB-231. In kind it is cell-based. The following applies: Homo sapiens. The method, then: (§1) The effect of ASM-024 on the growth of MCF7, SK-BR-3, MDA-MB-231, BT-474 (mammary adenocarcinomas), SK-OV/3 (ovary adenocarcinoma), PC3 (prostate adenocarcinoma) SK-MEL-28(skin melanoma) and C6 (tumor cell glioma) was evaluated. Cells were cultured in RPMI medium and incubated with different concentrations of ASM-024. Cell proliferation was measured on days 3 and 6 by the MTT colorimetric assay. Absorbance at 576-690 nm was analyzed with a microplate reader and expressed as optical density (OD) and as a percentage of the value of corresponding untreated cells. The IC50 was determined as the drug concentration required to inhibit cell growth by 50% from a plot of percent cell viability from control untreated cells versus treated cells.
FIGS. 5A and 5B illustrate the observed results for the MDA-MB-231 mammary/breast gland adenocarcinoma assay. Cells were incubated with the dose drug shown and growth measured at the days indicated. In FIG. 5A the data is expressed as optical density (OD) and in FIG. 5B as a percentage of the value of corresponding untreated cells. P<0.05 compared to control at same day by Student t-test
A general note: Formazan colour is commonly taken as a measure of viable cells.

For another test, the system named is BT-474. Description: Anti-proliferative MTT assay, BT-474. In kind it is cell-based. The following applies: Homo sapiens. The protocol: as §1
Another test concerns A549 cells. Description: In vivo antitumor assay, A549 tumor cell-bearing nu/nu mice (Example 27). The following applies: 30 mg/kg daily, subcutaneous or intraperitoneal. The method, then: For the in vivo antitumor assay, nu/nu mice were inoculated subcutaneously in the flank of mice with 2×10^6 A549 cells in sterile PBS mixed with 50% matrigel. Two days later ASM-024 was administered daily by subcutaneous (at a site close to the tumor) or intraperitoneal delivery at the dose of 30 mg/kg for up to 50 days. When palpable, tumor length and width were measured with a caliper and tumor volume calculated according to the formula Volume=(width2×length)/2.
FIGS. 6A, 6B, 7A and 7B are illustrating the antitumor effect of ASM-024 in A549 tumor cell-bearing mice after 51 days. The antitumor effect of each delivery mode was evaluated by measuring tumor volume (FIGS. 6A and 6B) and weight (FIGS. 7A and 7B). Values are presented as the mean±standard deviation.

Another test deals with C6. Description: Anti-proliferative MTT assay, C6. In kind it is cell-based. The settings on record: Rattus norvegicus. The method, then: as §1
The test system of another test is A549 lung adenocarcinoma. Briefly: In vitro combination treatment with cisplatin or taxol, A549 (MTT). The settings on record: ASM-024 alone, 3 days of drug treatment. Format: cell-based, human. The protocol: The concomitant effect of ASM-024 and cisplatin or taxol on the proliferation of A549 lung adenocarcinoma and MCF7 breast cancer adenocarcinoma cells was assessed in vitro.
A549 cells (3.0×10^3cells/well) were first cultured with 10% FBS in F12K media and MCF7 cells (10×10^3 cells/well) with 10% FBS in EMEM media for 24 hours to allow cells to adhere to the plate at 37° C. in a humidified incubator with 5% CO2. The next day, the media was replaced in medium containing appropriate drug concentrations […] for an additional 72 hours. Cell viability was quantified using the MTT colorimetric assay (M2128, Sigma) at 575-690 nm.

For another test, the system named is PC3. Description: Anti-proliferative MTT assay, PC3. In kind it is cell-based. The settings on record: Homo sapiens. The protocol: as §1
In test [1] the test system is A549 human lung carcinoma cells. Description: In vivo antitumor assay, A549 xenograft in Balb/c nude mice (Example 29). The settings on record: day 49; ASM-024 45 mg/kg s.c. daily day 14-38; taxol 10 mg/kg i.p. days 21, 28, 35; cisplatin 2.5 mg/kg i.p. days 28, 35. The protocol:
For the in vivo antitumor assay, A549 human lung carcinoma cells (3.5×106) in 50% F12K medium (Matrigel) were implanted subcutaneously in the flank of Balb/c nude mice (nu/nu, Charles River) and allowed to grow for 14 days. ASM-024 was administered daily by subcutaneous delivery at the dose of 45 mg/kg from day 14 to day 38 post cell inoculation. Taxol was administrated intraperitoneally at the dose of 10 mg/kg on days 21, 28 and 35. Cisplatin was administrated intraperioneally at the dose of 2.5 mg/kg on days 28 and 35. From day 14 to day 49, tumor length and width were measured once or twice a week with a caliper and tumor volume calculated according to the formula Volume=(width2×length)/2.

Test [2] relates to Calu 3 lung adenocarcinoma. Briefly: Cell proliferation assay, Calu 3 (MTT). In kind it is cell-based. The following applies: Homo sapiens. The method, then:
(§2) In vitro experiments were conducted on four cancer cell lines: the A549 adenocarcinoma cell line, the H520 squamous cell carcinoma the H82 small cell lung carcinoma and Calu 3 lung adenocarcinoma. The A549 tumor cells, were plated at a density of 1.5×10^4 cells per mL and let to adhere on 96-well microplates in F12K cell culture medium enriched with 10% fetal calf serum (FCS). The H520, H82 and Calu 3 tumor cells were plated at a density of 5×10^4 cells per mL in RPMI+10% FCS. After 24 h in culture, the medium was changed and cells were exposed to ASM-024 at concentrations ranging from 10^−7M to 10^−3M (FIGS. 1A-1C). After 3 and 6 days in culture, cell growth was quantified using the MTT colorimetric assay (M2128, Sigma) at 575-690 nm or the Cell Titer fluorescence assay (G8080, Promega) at 560/590 nm.
(§3) In an another set of experiments, a series of 16 other homopiperazinium compounds, in addition to ASM-024, were tested for their anti-proliferative effect on the four tumor cell lines described above after up to 6 days in culture at concentrations of 10^-7M to 10^-3M. (FIGS. 4A-4E) Cell growth was quantified using the MTT colorimetric assay for the A-549, H520 and Calu 3 cell lines and the CellTiter Fluorescence assay.for the H82 tumor cell line These are established method of determining viable cell number in proliferation studies.

Test [3] concerns H520 squamous cell carcinoma. Briefly: Cell proliferation assay, H520 (MTT). The following applies: for IC50: Tosylate. Format: cell-based. The protocol:
as §2, §3

The subject of the next test is MCF7. Description: Anti-proliferative MTT assay, MCF7. Format: cell-based. The settings on record: Homo sapiens. The method, then: as §1
For test [4], the system named is H82 small cell lung carcinoma. Description: Cell proliferation assay, H82 (CellTiter fluorescence). In kind it is cell-based. The following applies: for IC50: Homo sapiens. The protocol:
as §2, §3

The structures appear in SMILES notation. Where two headings read alike, the source gives them in different places. Bounds are passed on as bounds.

In general, IC50 refers to the concentration needed to halve the response being measured. With `CC[N+]1(CC)CCCN(c2ccccc2)CC1.Cc1ccc(S(=O)(=O)[O-])cc1` [ASM-024, 1,1-Diethyl-4-phenyl-homopiperazinium Tosylate], the concentration for half-maximal inhibition (IC50) in the test with MDA-MB-231 (72 h, MDA-MB-231, day 3, read-out: IC50 Day 3) was more than 1000 µM; in the test on MDA-MB-231 (144 h, MDA-MB-231, day 6, read-out: IC50 Day 6) it was 661 ± 115 µM; with BT-474 (72 h, BT-474, day 3, read-out: IC50 Day 3), more than 1000 µM; in the test on BT-474 (144 h, BT-474, day 6, read-out: IC50 Day 6), 644 ± 230 µM; with C6 (72 h, C6, day 3, read-out: IC50 Day 3), 353 ± 52 µM; with C6 (144 h, C6, day 6, read-out: IC50 Day 6), 186 ± 27 µM. Further, the IC50 with PC3 (PC-3, 72 h, PC3, day 3, read-out: IC50 Day 3) is more than 700 µM; with PC3 (PC-3, 144 h, PC3, day 6, read-out: IC50 Day 6), 176 ± 29 µM; in test [2] (72 h, Calu 3, day 3 in culture, read-out: IC50 Day 3), 685 ± 320 µM; in test [2] (144 h, Calu 3, day 6 in culture, read-out: IC50 Day 6), 192 ± 217 µM; in test [3] (H520, day 3 in culture, read-out: IC50 Day 3), 468 ± 287 µM; in [3] (H520, day 6 in culture, read-out: IC50 Day 6) it was 257 ± 257 µM. The IC50 in the test on MCF7 (72 h, MCF7, day 3, read-out: IC50 Day 3) was 470 ± 364 µM; in the test with MCF7 (144 h, MCF7, day 6, read-out: IC50 Day 6), 209 ± 42 µM; in [4] (NCI-H82, 72 h, H82, day 3 in culture, read-out: IC50 Day 3) it was 314 ± 205 µM; in [4] (NCI-H82, 144 h, H82, day 6 in culture, read-out: IC50 Day 6), 218 ± 76 µM. For the same compound, the “Tumor growth, as determined by mean tumor volumes” value in the test on A549 cells (51 days of observation, vs control mice) was “reduced”. In the test with A549 cells (after 51 days, vs vehicle-treated control mice), the “Mean tumor weight after surgical resection” value is reported as “reduction in tumor mass”. The “A549 cell growth inhibition” value in the test on A549 lung adenocarcinoma is on record as “dose-dependent growth inhibition of cell proliferation”. In addition, in test [1], the “A549 human carcinoma tumor growth (tumor volume)” value is given as “decrease in A549 human carcinoma tumor growth”. For the same compound, the “cell proliferation / cell growth inhibition (in words)” value in [3] (H520, day 3 and day 6, text on figures) is given as “dose-dependent decrease in cell proliferation”; in [4] (H82, day 3 and day 6, text on figures), “dose-dependent decrease in cell proliferation”.
